{"source": "patent US9862717B2", "about": "(Merck Patent GmbH, priority 2014, dated 2018)", "data": [{"target": "T1, CDK8/CycC (Homo sapiens, UniProt P49336)", "T1 construct": "purchased Invitrogen PV4402", "T1 sequence (P49336 whole entry)": "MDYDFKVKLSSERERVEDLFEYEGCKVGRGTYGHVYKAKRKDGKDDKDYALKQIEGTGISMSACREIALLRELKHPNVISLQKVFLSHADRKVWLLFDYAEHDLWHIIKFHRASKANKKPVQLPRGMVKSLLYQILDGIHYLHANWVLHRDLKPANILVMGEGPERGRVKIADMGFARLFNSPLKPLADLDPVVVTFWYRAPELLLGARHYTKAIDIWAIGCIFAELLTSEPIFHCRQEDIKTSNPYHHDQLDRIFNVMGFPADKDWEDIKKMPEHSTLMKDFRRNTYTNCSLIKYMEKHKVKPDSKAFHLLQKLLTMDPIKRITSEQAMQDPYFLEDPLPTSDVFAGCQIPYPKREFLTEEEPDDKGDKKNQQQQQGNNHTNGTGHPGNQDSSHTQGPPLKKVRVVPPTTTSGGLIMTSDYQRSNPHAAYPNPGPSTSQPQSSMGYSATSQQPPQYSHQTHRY", "T1 sequence (P24863 whole entry partner)": "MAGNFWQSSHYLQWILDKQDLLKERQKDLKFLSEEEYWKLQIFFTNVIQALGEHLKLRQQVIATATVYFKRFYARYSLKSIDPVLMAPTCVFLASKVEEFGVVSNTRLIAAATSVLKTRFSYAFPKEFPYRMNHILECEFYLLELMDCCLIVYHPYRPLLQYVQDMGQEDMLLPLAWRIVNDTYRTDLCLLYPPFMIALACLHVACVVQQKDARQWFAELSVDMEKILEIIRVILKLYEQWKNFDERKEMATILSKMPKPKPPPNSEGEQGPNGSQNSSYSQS", "test": "FRET based Lanthascreen binding competition assay for CDK8 inhibitory activity", "details": "CDK8 co-expressed with CycC; class symbols; read-out: IC50", "summary_of_the_method": "(§1)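 Competition binding of a dye-labeled ATP-competitive Alexa647 probe to CDK8 co-expressed with CycC, Eu-labeled via biotinylated anti-His antibody/streptavidin.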", "units": {"IC50": "µM"}, "values": [{"smiles": "Cc1n[nH]c2ncc(C(=O)N3C[C@H](C(N)=O)[C@@H](c4ccc(Cl)cc4)C3)cc12", "note": "[compound 186, (3R,4S)-4-(4-Chloro-phenyl)-1-(3-methyl-1H-pyrazolo[3,4-b]pyridine-5-carbonyl)-pyrrolidine-3-carboxylic acid amide]", "IC50": "0.1 to 1"}, {"smiles": "Cc1n[nH]c2ncc(C(=O)N3CCCC3c3ccc(Cl)c(Cl)c3)cc12", "note": "(centres unmarked) [compound 188, [2-(3,4-Dichloro-phenyl)-pyrrolidin-1-yl]-(3-methyl-1H-pyrazolo[3,4-b]pyridin-5-yl)-methanone]", "IC50": "0.01 to 0.1"}, {"smiles": "CC(C)c1ccc([C@@H]2CCCN2C(=O)c2ccc3[nH]nc(N)c3c2)cc1", "note": "[compound 194, (3-Amino-1H-indazol-5-yl)-[(S)-2-(4-isopropyl-phenyl)-pyrrolidin-1-yl]-methanone]", "IC50": "< 0.01"}, {"smiles": "CC(C)c1ccc([C@H]2CCCN2C(=O)c2ccc3[nH]nc(N)c3c2)cc1", "note": "[compound 195, (3-Amino-1H-indazol-5-yl)-[(R)-2-(4-isopropyl-phenyl)-pyrrolidin-1-yl]-methanone]", "IC50": "0.1 to 1"}, {"smiles": "Cc1n[nH]c2ncc(C(=O)N3CCC[C@H]3c3ccc(C(C)C)cc3)cc12", "note": "[compound 196, [(S)-2-(4-Isopropyl-phenyl)-pyrrolidin-1-yl]-(3-methyl-1H-pyrazolo[3,4-b]pyridin-5-yl)-methanone]", "IC50": "< 0.01"}, {"smiles": "Cc1n[nH]c2ncc(C(=O)N3CCC[C@@H]3c3ccc(C(C)C)cc3)cc12", "note": "[compound 197, [(R)-2-(4-Isopropyl-phenyl)-pyrrolidin-1-yl]-(3-methyl-1H-pyrazolo[3,4-b]pyridin-5-yl)-methanone]", "IC50": "0.1 to 1"}, {"smiles": "Cc1n[nH]c2ncc(C(=O)N3CC[C@](O)(c4ccccc4)C3)cc12", "note": "[compound 198, ((S)-3-Hydroxy-3-phenyl-pyrrolidin-1-yl)-(3-methyl-1H-pyrazolo[3,4-b]pyridin-5-yl)-methanone]", "IC50": "1 to 10"}, {"smiles": "Cc1n[nH]c2ncc(C(=O)N3CCC3c3ccc(F)cc3)cc12", "note": "(centres unmarked) [compound 200, [2-(4-Fluoro-phenyl)-azetidin-1-yl]-(3-methyl-1H-pyrazolo[3,4-b]pyridin-5-yl)-methanone]", "IC50": "0.1 to 1"}, {"smiles": "Cc1n[nH]c2cc(F)c(C(=O)N3CCC[C@@H]3c3ccc(Cl)cc3)cc12", "note": "[compound 203, [(R)-2-(4-Chloro-phenyl)-pyrrolidin-1-yl]-(6-fluoro-3-methyl-1H-indazol-5-yl)-methanone]", "IC50": "1 to 10"}, {"smiles": "Cc1n[nH]c2ccc(C(=O)N3CC[C@H]3c3ccc(F)cc3)cc12", "note": "[compound 204, [(S)-2-(4-Fluoro-phenyl)-azetidin-1-yl]-(3-methyl-1H-indazol-5-yl)-methanone]", "IC50": "< 0.01"}, {"smiles": "Cc1n[nH]c2cc(F)c(C(=O)N3CCC[C@H]3c3ccc(Cl)cc3)cc12", "note": "[compound 206, [(S)-2-(4-Chloro-phenyl)-pyrrolidin-1-yl]-(6-fluoro-3-methyl-1H-indazol-5-yl)-methanone]", "IC50": "< 0.01"}, {"smiles": "Cc1n[nH]c2ccc(C(=O)N3CC[C@@H]3c3ccc(F)cc3)cc12", "note": "[compound 207, [(R)-2-(4-Fluoro-phenyl)-azetidin-1-yl]-(3-methyl-1H-indazol-5-yl)-methanone]", "IC50": "0.01 to 0.1"}, {"smiles": "Nc1n[nH]c2ccc(C(=O)N3CCC[C@H]3c3ccc(C(F)(F)F)cc3)cc12", "note": "[compound 208, (3-Amino-1H-indazol-5-yl)-[(S)-2-(4-trifluoromethyl-phenyl)-pyrrolidin-1-yl]-methanone]", "IC50": "0.01 to 0.1"}, {"smiles": "Nc1n[nH]c2ccc(C(=O)N3CCC[C@@H]3c3ccc(C(F)(F)F)cc3)cc12", "note": "[compound 209, (3-Amino-1H-indazol-5-yl)-[(R)-2-(4-trifluoromethyl-phenyl)-pyrrolidin-1-yl]-methanone]", "IC50": "0.1 to 1"}, {"smiles": "CSc1n[nH]c2ccc(C(=O)N3CCC[C@H]3c3ccc(Cl)cc3)cc12", "note": "[compound 210, [(S)-2-(4-Chloro-phenyl)-pyrrolidin-1-yl]-(3-methylsulfanyl-1H-indazol-5-yl)-methanone]", "IC50": "< 0.01"}, {"smiles": "COC(=O)C1CCN(C(=O)c2cnc3[nH]nc(C)c3c2)C(c2ccccc2)C1", "note": "(centres unmarked) [compound 211, 1-(3-Methyl-1H-pyrazolo[3,4-b]pyridine-5-carbonyl)-2-phenyl-piperidine-4-carboxylic acid methyl ester]", "IC50": "0.1 to 1"}, {"smiles": "Cc1n[nH]c2ncc(C(=O)N3CCO[C@@](C)(c4ccc(Cl)cc4)C3)cc12", "note": "[compound 214, [(S)-2-(4-Chloro-phenyl)-2-methyl-morpholin-4-yl]-(3-methyl-1H-pyrazolo[3,4-b]pyridin-5-yl)-methanone]", "IC50": "1 to 10"}, {"smiles": "Cc1n[nH]c2ncc(C(=O)N3CCNC(=O)[C@H]3c3ccc(F)cc3)cc12", "note": "[compound 215, (R)-3-(4-Fluoro-phenyl)-4-(3-methyl-1H-pyrazolo[3,4-b]pyridine-5-carbonyl)-piperazin-2-one]", "IC50": "1 to 10"}, {"smiles": "O=C(c1ccc2[nH]nc(F)c2c1)N1CCC[C@H]1c1ccc(Cl)cc1", "note": "[compound 216, [(S)-2-(4-Chloro-phenyl)-pyrrolidin-1-yl]-(3-fluoro-1H-indazol-5-yl)-methanone]", "IC50": "< 0.01"}, {"smiles": "O=C(c1ccc2[nH]nc(Cl)c2c1)N1CCC[C@H]1c1ccc(Cl)cc1", "note": "[compound 217, (3-Chloro-1H-indazol-5-yl)-[(S)-2-(4-chloro-phenyl)-pyrrolidin-1-yl]-methanone]", "IC50": "0.01 to 0.1"}, {"smiles": "O=C(c1ccc2[nH]nc(Cl)c2c1)N1CCC(c2ccc(Cl)cc2)C1", "note": "(centres unmarked) [compound 218, (3-Chloro-1H-indazol-5-yl)-[3-(4-chloro-phenyl)-pyrrolidin-1-yl]-methanone]", "IC50": "0.01 to 0.1"}, {"smiles": "O=C(c1ccc2[nH]nc(Cl)c2c1)N1CCCC1c1ccc(C(F)(F)F)cc1", "note": "(centres unmarked) [compound 219, (3-Chloro-1H-indazol-5-yl)-[2-(4-trifluoromethyl-phenyl)-pyrrolidin-1-yl]-methanone]", "IC50": "0.01 to 0.1"}, {"smiles": "CS(=O)(=O)c1n[nH]c2ccc(C(=O)N3CCC[C@H]3c3ccc(Cl)cc3)cc12", "note": "[compound 220, [(S)-2-(4-Chloro-phenyl)-pyrrolidin-1-yl]-(3-methanesulfonyl-1H-indazol-5-yl)-methanone]", "IC50": "0.01 to 0.1"}, {"smiles": "COc1ccc([C@@H]2CCCN2C(=O)c2cnc3[nH]nc(C)c3c2)cc1", "note": "[compound 221, [(S)-2-(4-Methoxy-phenyl)-pyrrolidin-1-yl]-(3-methyl-1H-pyrazolo[3,4-b]pyridin-5-yl)-methanone]", "IC50": "< 0.01"}, {"smiles": "COc1cccc([C@@H]2CCCN2C(=O)c2cnc3[nH]nc(C)c3c2)c1", "note": "[compound 222, [(S)-2-(3-Methoxy-phenyl)-pyrrolidin-1-yl]-(3-methyl-1H-pyrazolo[3,4-b]pyridin-5-yl)-methanone]", "IC50": "0.1 to 1"}, {"smiles": "COc1ccc([C@H]2CCCN2C(=O)c2cnc3[nH]nc(C)c3c2)cc1", "note": "[compound 223, [(R)-2-(4-Methoxy-phenyl)-pyrrolidin-1-yl]-(3-methyl-1H-pyrazolo[3,4-b]pyridin-5-yl)-methanone]", "IC50": "1 to 10"}, {"smiles": "COc1cccc([C@H]2CCCN2C(=O)c2cnc3[nH]nc(C)c3c2)c1", "note": "[compound 224, [(R)-2-(3-Methoxy-phenyl)-pyrrolidin-1-yl]-(3-methyl-1H-pyrazolo[3,4-b]pyridin-5-yl)-methanone]", "IC50": "1 to 10"}, {"smiles": "Cc1n[nH]c2ncc(C(=O)N3CCC[C@H]3c3ccc(Cl)cc3F)cc12", "note": "[compound 225, [(S)-2-(4-Chloro-2-fluoro-phenyl)-pyrrolidin-1 yl]-(3-methyl-1H-pyrazolo[3,4-b]pyridin-5-yl)-methanone]", "IC50": "< 0.01"}, {"smiles": "Cc1n[nH]c2ncc(C(=O)N3CCC[C@@H]3c3ccc(Cl)cc3F)cc12", "note": "[compound 226, [(R)-2-(4-Chloro-2-fluoro-phenyl)-pyrrolidin-1-yl]-(3-methyl-1H-pyrazolo[3,4-b]pyridin-5-yl)-methanone]", "IC50": "1 to 10"}, {"smiles": "Cc1n[nH]c2ncc(C(=O)N3CCC[C@H]3c3ccc(Cl)c(F)c3)cc12", "note": "[compound 227, [(S)-2-(4-Chloro-3-fluoro-phenyl)-pyrrolidin-1-yl]-(3-methyl-1H-pyrazolo[3,4-b]pyridin-5-yl)-methanone]", "IC50": "< 0.01"}, {"smiles": "Cc1n[nH]c2ncc(C(=O)N3CCC[C@@H]3c3ccc(Cl)c(F)c3)cc12", "note": "[compound 228, [(R)-2-(4-Chloro-3-fluoro-phenyl)-pyrrolidin-1-yl]-(3-methyl-1H-pyrazolo[3,4-b]pyridin-5-yl)-methanone]", "IC50": "1 to 10"}, {"smiles": "Cc1n[nH]c2ncc(C(=O)N3CCC[C@@H]3c3ccc4cn[nH]c4c3)cc12", "note": "[compound 229, [(R)-2-(1H-Indazol-6-yl)-pyrrolidin-1-yl]-(3-methyl-1H-pyrazolo[3,4-b]pyridin-5-yl)-methanone]", "IC50": "1 to 10"}, {"smiles": "Cc1n[nH]c2ncc(C(=O)N3CCC[C@H]3c3ccc4cn[nH]c4c3)cc12", "note": "[compound 230, [(S)-2-(1H-Indazol-6-yl)-pyrrolidin-1-yl]-(3-methyl-1H-pyrazolo[3,4-b]pyridin-5-yl)-methanone]", "IC50": "0.01 to 0.1"}, {"smiles": "Cc1n[nH]c2ncc(C(=O)N3C[C@@H](C)C[C@@H]3c3ccc(C(F)(F)F)cc3)cc12", "note": "[compound 231, (3-Methyl-1H-pyrazolo[3,4-b]pyridin-5-yl)-[(2R,4S)-4-methyl-2-(4-trifluoromethyl-phenyl)-pyrrolidin-1-yl]-methanone]", "IC50": "1 to 10"}, {"smiles": "Cc1n[nH]c2ncc(C(=O)N3C[C@H](C)C[C@H]3c3ccc(C(F)(F)F)cc3)cc12", "note": "[compound 232, (3-Methyl-1H-pyrazolo[3,4-b]pyridin-5-yl)-[(2S,4R)-4-methyl-2-(4-trifluoromethyl-phenyl)-pyrrolidin-1-yl]-methanone]", "IC50": "0.01 to 0.1"}]}, {"target": "T1, CDK8/CycC", "test": "FRET based Lanthascreen binding competition assay for CDK8 inhibitory activity", "details": "IC50 [μM], CDK8 co-expressed with CycC; class symbols", "summary_of_the_method": "as §1", "units": {"IC50": "µM"}, "values": [{"smiles": "Cc1n[nH]c2cnc(C(=O)N3CCC[C@H]3c3ccc(Cl)cc3)cc12", "note": "[compound 190, [(S)-2-(4-Chloro-phenyl)-pyrrolidin-1-yl]-(3-methyl-1H-pyrazolo[3,4-c]pyridin-5-yl)-methanone]", "IC50": "0.01 to 0.1"}, {"smiles": "Cc1n[nH]c2ccc(C(=O)N3CC[C@H]3c3ccc(Cl)cc3)cc12", "note": "[compound 202, [(S)-2-(4-Chloro-phenyl)-azetidin-1-yl]-(3-methyl-1H-indazol-5-yl)-methanone]", "IC50": "< 0.01"}, {"smiles": "Cc1n[nH]c2ccc(C(=O)N3CC[C@@H]3c3ccc(Cl)cc3)cc12", "note": "[compound 205, [(R)-2-(4-Chloro-phenyl)-azetidin-1-yl]-(3-methyl-1H-indazol-5-yl)-methanone]", "IC50": "0.1 to 1"}]}]}
